Results from ChEMBL document CHEMBL4184222, “A multifaceted approach to identify non-specific enzyme inhibition: Application to Mycobacterium tuberculosis shikimate kinase” (Bioorg Med Chem Lett, 2018).
≈ marks a conversion by molar mass, not a printed value.

Key:
[1] = Aggregation property of the compound in potassium phosphate buffer at pH 7.2 assessed as micelle formation by measuring peal broadening at 12.5 to 200 uM by one-dimensional 1H-NMR spectroscopy; type: physicochemical; settings: pH 7.2, 200 µM
[2] = Aggregation property of the compound in potassium phosphate buffer at pH 7.2 assessed as micelle formation by measuring peal broadening at 6.25 to 200 uM by one-dimensional 1H-NMR spectroscopy; type: physicochemical; settings: pH 7.2, 200 µM
[3] = tested on: Mycobacterium tuberculosis; assay: Inhibition of Mycobacterium tuberculosis shikimate kinase assessed as reduction in S3P production at <50 uM pre-incubated for 30 mins before ATP and shikimate substrate addition by LC-MS assay
[4] = Inhibition of Mycobacterium tuberculosis shikimate kinase assessed as reduction in S3P production pre-incubated for 30 mins before ATP and shikimate substrate addition by LC-MS assay
[5] = tested on: Mycobacterium tuberculosis; assay: Antimycobacterial activity against Mycobacterium tuberculosis H37Rv; type: functional
[6] = Aggregation property of the compound in ammonium acetate buffer at pH 7.6 assessed as light scattering intensity counts at 100 uM in absence of Triton X-100 by dynamic light scattering method; type: physicochemical; settings: pH 7.6, 100 µM
[7] = Aggregation property of the compound in ammonium acetate buffer at pH 7.6 assessed as particle size at 100 uM in absence of Triton X-100 by dynamic light scattering method; type: physicochemical; settings: pH 7.6, 100 µM
[8] = Aggregation property of the compound in ammonium acetate buffer at pH 7.6 assessed as light scattering intensity counts at 100 uM in presence of Triton X-100 by dynamic light scattering method; type: physicochemical; settings: pH 7.6, 100 µM
[9] = Aggregation property of the compound in ammonium acetate buffer at pH 7.6 assessed as particle size at 100 uM in presence of Triton X-100 by dynamic light scattering method; type: physicochemical; settings: pH 7.6, 100 µM
[10] = Aggregation property of the compound in water at pH 7 assessed as particle size at 100 uM in presence of Triton X-100 by dynamic light scattering method; type: physicochemical; settings: buffer, pH 7, 100 µM
[11] = Aggregation property of the compound in water at pH 7 assessed as light scattering intensity counts at 100 uM in presence of Triton X-100 by dynamic light scattering method; type: physicochemical; settings: buffer, pH 7, 100 µM
[12] = Aggregation property of the compound in water at pH 7 assessed as particle size at 100 uM in absence of Triton X-100 by dynamic light scattering method; type: physicochemical; settings: buffer, pH 7, 100 µM
[13] = Aggregation property of the compound in water at pH 7 assessed as light scattering intensity counts at 100 uM in absence of Triton X-100 by dynamic light scattering method; type: physicochemical; settings: buffer, pH 7, 100 µM
[14] = tested on: Mycobacterium tuberculosis; assay: Inhibition of Mycobacterium tuberculosis shikimate kinase assessed as reduction in S3P production at 30 uM pre-incubated with 0.02 uM enzyme for 30 mins before ATP and shikimate substrate addition in absence of Triton X-100 by LC-MS assay
[15] = tested on: Mycobacterium tuberculosis; assay: Inhibition of Mycobacterium tuberculosis shikimate kinase assessed as reduction in S3P production at 30 uM pre-incubated with 0.02 uM enzyme for 30 mins before ATP and shikimate substrate addition in presence of Triton X-100 by LC-MS assay
[16] = tested on: Mycobacterium tuberculosis; assay: Inhibition of Mycobacterium tuberculosis shikimate kinase assessed as reduction in S3P production at 30 uM pre-incubated with 0.2 uM enzyme for 30 mins before ATP and shikimate substrate addition in absence of Triton X-100 by LC-MS assay
[17] = tested on: Mycobacterium tuberculosis; assay: Inhibition of Mycobacterium tuberculosis shikimate kinase assessed as reduction in S3P production at 30 uM pre-incubated with 0.2 uM enzyme for 30 mins before ATP and shikimate substrate addition in presence of Triton X-100 by LC-MS assay
[18] = Inhibition of Mycobacterium tuberculosis shikimate kinase assessed as reduction in S3P production […] pre-incubated with 0.015 uM enzyme for 30 mins before ATP and shikimate substrate addition by LC-MS assay
[19] = Aggregation property of the compound in ammonium acetate buffer at pH 7.6 assessed as light scattering intensity counts at 30 uM in absence of Triton X-100 by dynamic light scattering method; type: physicochemical; settings: pH 7.6, 30 µM
[20] = Aggregation property of the compound in ammonium acetate buffer at pH 7.6 assessed as light scattering intensity counts at 10 uM in absence of Triton X-100 by dynamic light scattering method; type: physicochemical; settings: pH 7.6, 10 µM
[21] = Aggregation property of the compound in ammonium acetate buffer at pH 7.6 assessed as light scattering intensity counts at 3 uM in absence of Triton X-100 by dynamic light scattering method; type: physicochemical; settings: pH 7.6, 3 µM
[22] = Aggregation property of the compound in ammonium acetate buffer at pH 7.6 assessed as particle size at 30 uM in absence of Triton X-100 by dynamic light scattering method; type: physicochemical; settings: pH 7.6, 30 µM
[23] = Aggregation property of the compound in ammonium acetate buffer at pH 7.6 assessed as particle size at 10 uM in absence of Triton X-100 by dynamic light scattering method; type: physicochemical; settings: pH 7.6, 10 µM
[24] = Aggregation property of the compound in ammonium acetate buffer at pH 7.6 assessed as particle size at 3 uM in absence of Triton X-100 by dynamic light scattering method; type: physicochemical; settings: pH 7.6, 3 µM
[25] = Aggregation property of the compound in ammonium acetate buffer at pH 7.6 assessed as light scattering intensity counts at 30 uM in presence of Triton X-100 by dynamic light scattering method; type: physicochemical; settings: pH 7.6, 30 µM
[26] = Aggregation property of the compound in ammonium acetate buffer at pH 7.6 assessed as light scattering intensity counts at 10 uM in presence of Triton X-100 by dynamic light scattering method; type: physicochemical; settings: pH 7.6, 10 µM
[27] = Aggregation property of the compound in ammonium acetate buffer at pH 7.6 assessed as light scattering intensity counts at 3 uM in presence of Triton X-100 by dynamic light scattering method; type: physicochemical; settings: pH 7.6, 3 µM
[28] = Aggregation property of the compound in ammonium acetate buffer at pH 7.6 assessed as particle size at 30 uM in presence of Triton X-100 by dynamic light scattering method; type: physicochemical; settings: pH 7.6, 30 µM
[29] = Aggregation property of the compound in ammonium acetate buffer at pH 7.6 assessed as particle size at 10 uM in presence of Triton X-100 by dynamic light scattering method; type: physicochemical; settings: pH 7.6, 10 µM
[30] = Aggregation property of the compound in ammonium acetate buffer at pH 7.6 assessed as particle size at 3 uM in presence of Triton X-100 by dynamic light scattering method; type: physicochemical; settings: pH 7.6, 3 µM
[31] = Aggregation property of the compound in water at pH 7 assessed as light scattering intensity counts at 10 uM in absence of Triton X-100 by dynamic light scattering method; type: physicochemical; settings: buffer, pH 7, 10 µM
[32] = Aggregation property of the compound in water at pH 7 assessed as light scattering intensity counts at 30 uM in absence of Triton X-100 by dynamic light scattering method; type: physicochemical; settings: buffer, pH 7, 30 µM
[33] = Aggregation property of the compound in water at pH 7 assessed as light scattering intensity counts at 3 uM in absence of Triton X-100 by dynamic light scattering method; type: physicochemical; settings: buffer, pH 7, 3 µM
[34] = Aggregation property of the compound in water at pH 7 assessed as particle size at 30 uM in absence of Triton X-100 by dynamic light scattering method; type: physicochemical; settings: buffer, pH 7, 30 µM
[35] = Aggregation property of the compound in water at pH 7 assessed as particle size at 10 uM in absence of Triton X-100 by dynamic light scattering method; type: physicochemical; settings: buffer, pH 7, 10 µM
[36] = Aggregation property of the compound in water at pH 7 assessed as particle size at 3 uM in absence of Triton X-100 by dynamic light scattering method; type: physicochemical; settings: buffer, pH 7, 3 µM
[37] = Aggregation property of the compound in water at pH 7 assessed as light scattering intensity counts at 30 uM in presence of Triton X-100 by dynamic light scattering method; type: physicochemical; settings: buffer, pH 7, 30 µM
[38] = Aggregation property of the compound in water at pH 7 assessed as light scattering intensity counts at 10 uM in presence of Triton X-100 by dynamic light scattering method; type: physicochemical; settings: buffer, pH 7, 10 µM
[39] = Aggregation property of the compound in water at pH 7 assessed as light scattering intensity counts at 3 uM in presence of Triton X-100 by dynamic light scattering method; type: physicochemical; settings: buffer, pH 7, 3 µM
[40] = Aggregation property of the compound in water at pH 7 assessed as particle size at 30 uM in presence of Triton X-100 by dynamic light scattering method; type: physicochemical; settings: buffer, pH 7, 30 µM
[41] = Aggregation property of the compound in water at pH 7 assessed as particle size at 10 uM in presence of Triton X-100 by dynamic light scattering method; type: physicochemical; settings: buffer, pH 7, 10 µM
[42] = Aggregation property of the compound in water at pH 7 assessed as particle size at 3 uM in presence of Triton X-100 by dynamic light scattering method; type: physicochemical; settings: buffer, pH 7, 3 µM
[43] = Aggregation property of the compound in ammonium acetate buffer at pH 7.6 assessed as particle size at 30 uM in absence of Triton X-100 by transmission electron microscopy; type: physicochemical; settings: pH 7.6, 30 µM
[44] = Aggregation property of the compound in ammonium acetate buffer at pH 7.6 assessed as particle size at 30 uM in presence of Triton X-100 by transmission electron microscopy; type: physicochemical; settings: pH 7.6, 30 µM

Structure (SMILES): Nc1nc2ccc(OC(F)(F)F)cc2s1 [RILUZOLE]
- Activity [1]: Not Active

Structure (SMILES): CCSc1ccc(C(=O)Nc2nnc(-c3ccco3)o2)cc1
- Activity [2]: Active
- inhibition [3]: > 90%
- IC50 [4]: 20.7 µM
- IC90 [5]: 0.71 µg/mL (≈ 2.25 µM)
- Activity [6]: 250 kCounts
- Activity [7]: 1151 nm
- Activity [8]: 100 kCounts
- Activity [9]: 185 nm
- Activity [10]: 182 nm
- Activity [11]: 85 kCounts
- Activity [12]: 1123 nm
- Activity [13]: 245 kCounts

Structure (SMILES): COc1cc(C=O)ccc1OCc1ccccc1COc1ccc(/C=C2/SC(=S)NC2=O)cc1OC
- inhibition [14]: 96%
- inhibition [15]: 98%
- inhibition [16]: 55%
- inhibition [17]: 83%
- IC50 [18]: 10.1 µM
- Activity [19]: 30 kCounts
- Activity [20]: 4 kCounts
- Activity [21]: 0 Counts
- Activity [22]: 80 nm
- Activity [23]: 0 nm
- Activity [24]: 0 nm
- Activity [25]: 5 kCounts
- Activity [26]: 4 kCounts
- Activity [27]: 0 kCounts
- Activity [28]: 0 nm
- Activity [29]: 0 nm
- Activity [30]: 0 nm
- Activity [31]: 2 kCounts
- Activity [32]: 30 kCounts
- Activity [33]: 0 kCounts
- Activity [34]: 80 nm
- Activity [35]: 0 nm
- Activity [36]: 0 nm
- Activity [37]: 5 kCounts
- Activity [38]: 2 kCounts
- Activity [39]: 0 kCounts
- Activity [40]: 0 nm
- Activity [41]: 0 nm
- Activity [42]: 0 nm
- Activity [43]: 100 nm
- Activity [44]: 5 nm
